In brackets after ≈: the same amount, converted by molar mass. Several values for one entry are separate records, joined by “and”; a condition that tells them apart may be missing. Equal values may be shown once. Read-outs that look alike come from different tables or passages of the source. *1 amine or outer side, *2 acyl side, *3 side chain or, on linkers, in order; H or OH if unused. Where a SMILES comes first, the peptide text is derived from it. [ ]: non-standard residue; d: D form. X1 = C#CCn1cc(C[C@H](N[*:1])C(=O)[*:2])c2ccccc21; NMeLeu(5-OH,4R) = CN[C@@H](C[C@@H](C)CO)C(=O)O; Phe(βR-OMe) = CO[C@H](c1ccccc1)[C@H](N)C(=O)O; Trp(1-Me) = Cn1cc(C[C@H](N)C(=O)O)c2ccccc21; NMeL = CN[C@@H](CC(C)C)C(=O)O; Pra = C#CC[C@H](N)C(=O)O
Columns and labels:
[1] = assay type: in vitro ADME, Human
[2] = tested on: Staphylococcus aureus; test: MIC ESKAPES panel, Staphylococcus aureus; assay type: cell-based
Description: (§1) Minimum inhibitory concentration (MIC) against ESKAPES panel of Gram positive and Gram negative pathogens (Enterococcus faecium, Staphylococcus aureus, Klebsiella pneumoniae, Acinetobacter baumannii, Pseudomonas aeruginosa, Enterobacter cloacae and Salmonella typhimurium [ESKAPES panel]) were determined at the FNDR by the standard broth dilution method [CLSI, M100]. […] Mueller Hinton broth (MHB) medium was used to grow ESKAPES panel strains. The individual cultures were added as 200 μL (inoculum of 3–7 × 10^5 cfu/ml) to the respective assay plates in each well to all columns, except the media control (200 μL of medium). […] The assay plates were incubated at 37 °C, and the results were noted on the 2nd day as turbidometric readout. The clear wells indicated inhibition of growth, while the turbid wells indicated uninhibited growth.

[3] = tested on: Acinetobacter baumannii; test: MIC ESKAPES panel, Acinetobacter baumannii; assay type: cell-based
Description: as §1

[4] = tested on: Mtb (moxR) FNDR-M1; test: microbe, parasite or virus in culture; assay type: cell-based
[5] = tested on: Msm 700084; test: microbe, parasite or virus in culture; assay type: cell-based
[6] = assay type: in vitro ADME, Rat
[7] = tested on: Enterobacter cloacae; test: MIC ESKAPES panel, Enterobacter cloacae; assay type: cell-based
Description: as §1

[8] = in vitro; details: human
Method in brief: (§2)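 Values are bidirectional Caco-2 apparent permeabilities, P(A−B) and P(B−A), given in 10^-6 cm s-1. The efflux ratio divides P(B−A) by P(A−B), and intrinsic permeability averages the two directions.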

[9] = tested on: Caco-2 monolayers; test: in vitro
Method in brief: as §2

[10] = Gram-Positive Bacteria, replicates 1-3
[11] = Staphylococcus aureus, Gram positive, n = 3 well replicates
[12] = Staphylococcus aureus, Gram-Positive Bacteria, replicates 1-3
[13] = Gram negative, n = 3 well replicates, read-out: MIC Acinetobacter baumanii
[14] = Gram-Negative Bacteria, replicates 1-3, read-out: MIC Acinetobacter baumannii
[15] = M. tuberculosis FNDR-M1, single well replicates
[16] = Mycobacterium tuberculosis, M. tuberculosis FNDR-M1, single well replicates
[17] = Mycobacterium tuberculosis, Mtb (moxR) FNDR-M1, mean ± SD, n = 3 well replicates
[18] = Mycolicibacterium smegmatis, 700084, single determinations, read-out: Msm 700084 MIC
[19] = Mycolicibacterium smegmatis, 700084, read-out: MIC Msm 700084
[20] = Enterobacter cloacae, Gram negative, n = 3 well replicates
[21] = Enterobacter cloacae, Gram-Negative Bacteria, replicates 1-3
[22] = Gram-Negative Bacteria, replicates 1-3
[23] = Caco-2, Caco-2 permeability P (A-B), apical to basolateral
[24] = mean value of P(A−B) and P(B−A)

Structure (SMILES)	Hepatocyte Human ([1]; human, pH 7.4)	MIC [2, 10]	MIC [2, 11]	MIC [2, 12]	MIC [3, 13]	MIC [3, 14]	MIC [4, 15]	MIC [4, 16]	MIC [4, 17]	MIC [5, 18]	MIC [5, 19]	Hepatocyte Rat ([6]; rat, pH 7.4)	MIC [7, 20]	MIC [7, 21]	MIC [7, 22]	Caco-2 Int. Perm ([9]; human, Caco-2)	Hepatocyte Human ([1]; clearance in hepatocytes)	Hepatocyte Rat ([6]; clearance in hepatocytes)	Papp A→B [8, 23]	Caco-2 Int. Perm [9, 24]	other results
C#CCn1cc(C[C@@H]2NC(=O)[C@H](C(C)C)NC(=O)[C@H](CC(C)C)N(C)C(=O)[C@H](C(C)C)NC(=O)[C@H]([C@H](OC)c3ccccc3)NC(=O)[C@H](C)NC(=O)[C@H](C[C@@H](C)CO)N(C)C2=O)c2ccccc21 [Compound 5] (cyclo(A[Phe(βR-OMe)]V[NMeL]V[X1][NMeLeu(5-OH,4R)]))	12 %Qh	>50 µM	> 50 µM	> 47 µg/mL	> 50 µM	> 50 µM and > 47 µg/mL	0.391 µM and 0.781 µM	0.781 µM (≈ 0.735 µg/mL)	0.7 ± 0.2 µM (≈ 0.659 µg/mL)	6.25 µM (≈ 5.88 µg/mL)	6.3 µM (≈ 5.93 µg/mL)	51 %Qh	> 50 µM	> 47 µg/mL	>50 µM	12.1					Hepatocyte Stability Human QH ([1]; human, pH 7.4): 12.386%; Hepatocyte Stability Rat QH ([6]; rat, pH 7.4): 51.066%; efflux ratio ([8]; Caco-2): 20.4; Papp A→B ([8]; Caco-2, CACO permeability PEAB): 0.95 ×10⁻⁶ cm/s; Papp B→A ([8]; Caco-2, CACO permeability PEBA): 19 ×10⁻⁶ cm/s; Papp A→B ([8]; Caco-2, Caco-2 permeability P (A-B)): 1.1 ×10⁻⁶ cm/s; Papp B→A ([8]; Caco-2, Caco-2 permeability P (B-A)): 23 ×10⁻⁶ cm/s; Influence of N-methylation on permeability ([9]; human, Caco-2): 9.3
C#CC[C@@H]1NC(=O)[C@H](CC(C)C)N(C)C(=O)[C@H](C(C)C)NC(=O)[C@H]([C@H](OC)c2ccccc2)NC(=O)[C@H](C)NC(=O)[C@H](C[C@@H](C)CO)N(C)C(=O)[C@H](Cc2cn(C)c3ccccc23)NC1=O [Compound 10] (cyclo(A[Phe(βR-OMe)]V[NMeL][Pra][Trp(1-Me)][NMeLeu(5-OH,4R)]))		>50 µM	> 50 µM	> 45.6 µg/mL	> 50 µM	> 50 µM and > 45.6 µg/mL	1.56 µM (≈ 1.42 µg/mL)	1.56 µM (≈ 1.42 µg/mL)	1.6 µM (≈ 1.46 µg/mL)	25 µM (≈ 22.8 µg/mL)	25 µM (≈ 22.8 µg/mL)		> 50 µM	> 45.6 µg/mL	>50 µM		12 %Qh	70 %Qh	< 0.1 ×10⁻⁶ cm/s	7.1 10-6 cm s-1	Hepatocyte Stability Rat QH ([6]; Rat): 69.830%; Papp B→A ([8]; Caco-2, CACO permeability PEBA, basolateral to apical): 19 ×10⁻⁶ cm/s; CACO permeability PEBA ([9]; basolateral to apical): 0.000014 cm/s
COC(c1ccccc1)C1NC(=O)C(C)NC(=O)C(CC(C)CO)N(C)C(=O)C(Cc2cn(Cc3cn(CCOCCOCCOCCOCCn4cc(Cn5cc(CC6NC(=O)C(C(C)C)NC(=O)C(CC(C)C)N(C)C(=O)C(C(C)C)NC(=O)C(C(OC)c7ccccc7)NC(=O)C(C)NC(=O)C(CC(C)CO)N(C)C6=O)c6ccccc65)nn4)nn3)c3ccccc23)NC(=O)C(C(C)C)NC(=O)C(CC(C)C)N(C)C(=O)C(C(C)C)NC1=O (stereo not shown) [Compound 8]			> 50 µM	> 109 µg/mL	> 50 µM	> 50 µM and > 109 µg/mL	0.195 µM (≈ 0.423 µg/mL)	0.195 µM (≈ 0.423 µg/mL)	0.2 µM (≈ 0.434 µg/mL)		8.3 ± 5.1 µM (≈ 18 µg/mL)		> 50 µM	> 109 µg/mL			12 %Qh	6 %Qh		0.4 10-6 cm s-1	MIC ([2]; Gram-Positive Bacteria, replicates 1-3, listed as 8 (UdSBI-0545)): >50 µM; MIC ([7]; Gram-Negative Bacteria, replicates 1-3, listed as 8 (UdSBI-0545)): >50 µM; CACO permeability PEAB ([9]; apical to basolateral): <0.0000027 cm/sec; Caco-2 permeability P (A-B) ([9]; apical to basolateral): < 0.6 10-6 cm s-1; CACO permeability PEBA ([9]; basolateral to apical): <0.000001 cm/sec; Caco-2 permeability P (B-A) ([9]; basolateral to apical): < 0.3 10-6 cm s-1
COC(c1ccccc1)C1NC(=O)C(C)NC(=O)C(CC(C)CO)N(C)C(=O)C(Cc2cn(C)c3ccccc23)NC(=O)C(Cc2cn(CCCCCn3cc(CC4NC(=O)C(CC(C)C)N(C)C(=O)C(C(C)C)NC(=O)C(C(OC)c5ccccc5)NC(=O)C(C)NC(=O)C(CC(C)CO)N(C)C(=O)C(Cc5cn(C)c6ccccc56)NC4=O)nn3)nn2)NC(=O)C(CC(C)C)N(C)C(=O)C(C(C)C)NC1=O (stereo not shown) [Compound 12]	12 %Qh		> 50 µM	> 99 µg/mL	> 50 µM	> 50 µM and > 99 µg/mL	0.195 µM (≈ 0.386 µg/mL)	0.195 µM (≈ 0.386 µg/mL)	0.2 µM (≈ 0.396 µg/mL)	> 50 µM	> 50 µM	6 %Qh	> 50 µM	> 99 µg/mL		0.5					MIC ([2]; Gram-Positive Bacteria, replicates 1-3, listed as 12 (UdSBI-4377)): >50 µM; MIC ([7]; Gram-Negative Bacteria, replicates 1-3, listed as 12 (UdSBI-4377)): >50 µM; CACO permeability PEAB ([9]; human, Caco-2): 0.00000073 cm/s; CACO permeability PEBA ([9]; human, Caco-2): 0.00000025 cm/s; Caco-2 Efflux ratio ([9]; human, Caco-2): 0.3; Caco-2 permeability P (A-B) ([9]; human, Caco-2): 0.7; Caco-2 permeability P (B-A) ([9]; human, Caco-2): 0.2
COc1c(N2C[C@@H]3CCCN[C@@H]3C2)c(F)cc2c(=O)c(C(=O)O)cn(C3CC3)c12 [Moxifloxacin, reference compound]			0.3 µM	0.31 µM and 0.125 µg/mL	0.3 µM (≈ 0.12 µg/mL)	0.31 µM and 0.125 µg/mL	19.93 µM (≈ 8 µg/mL)	19.9 µM (≈ 8 µg/mL)	19.9 µM (≈ 7.99 µg/mL)				0.3 µM	0.31 µM and 0.125 µg/mL							
CO[C@H](c1ccccc1)[C@@H]1NC(=O)[C@H](C)NC(=O)[C@H](C[C@@H](C)CO)N(C)C(=O)[C@H](Cc2cn(Cc3cn(CCOCCn4cc(Cn5cc(C[C@@H]6NC(=O)[C@H](C(C)C)NC(=O)[C@H](CC(C)C)N(C)C(=O)[C@H](C(C)C)NC(=O)[C@H]([C@H](OC)c7ccccc7)NC(=O)[C@H](C)NC(=O)[C@H](C[C@@H](C)CO)N(C)C6=O)c6ccccc65)nn4)nn3)c3ccccc23)NC(=O)[C@H](C(C)C)NC(=O)[C@H](CC(C)C)N(C)C(=O)[C@H](C(C)C)NC1=O [Compound 6]											20.8 ± 15.1 µM (≈ 42.4 µg/mL)						12 %Qh	6 %Qh	< 1.7 ×10⁻⁶ cm/s	2.1 10-6 cm s-1	Papp A→B ([8]; Caco-2, CACO permeability PEAB, apical to basolateral): < 2.6 ×10⁻⁶ cm/s; Papp B→A ([8]; Caco-2, Caco-2 permeability P (B-A), basolateral to apical): 2.4 ×10⁻⁶ cm/s

— publication PMC10914731, “Homo-BacPROTAC-induced degradation of ClpC1 as a strategy against drug-resistant mycobacteria” (Nature Communications, 2024)
